This data set has as its system CCRIS mutagenicity, Ames/micronucleus/aberration tests. As to the kind of experiment: CCRIS mutagenicity studies.

The source made the active and inactive calls. How the calls were made is not given here.

As to `Nc1nc(N)c2nc(-c3ccccc3)c(N)nc2n1`, the mutagenic call is “inactive; negative” (Test System: AMES SALMONELLA TYPHIMURIUM, Strain/Indicator: TA98, Metabolic Activation: HAMSTER, LIVER, S-9, AROCLOR 1254 (10%), Method: PREINCUBATION); “inactive; negative” (Test System: AMES SALMONELLA TYPHIMURIUM, Strain/Indicator: TA98, Metabolic Activation: NONE, Method: PREINCUBATION); “inactive; negative” (Test System: AMES SALMONELLA TYPHIMURIUM, Strain/Indicator: TA98, Metabolic Activation: RAT, LIVER, S-9, AROCLOR 1254 (10%), Method: PREINCUBATION); “inactive; negative” (Test System: AMES SALMONELLA TYPHIMURIUM, Strain/Indicator: TA100, Metabolic Activation: HAMSTER, LIVER, S-9, AROCLOR 1254 (10%), Method: PREINCUBATION); “inactive; negative” (Test System: AMES SALMONELLA TYPHIMURIUM, Strain/Indicator: TA100, Metabolic Activation: NONE, Method: PREINCUBATION); “inactive; negative” (Test System: AMES SALMONELLA TYPHIMURIUM, Strain/Indicator: TA100, Metabolic Activation: RAT, LIVER, S-9, AROCLOR 1254 (10%), Method: PREINCUBATION). Besides, the mutagenic call (Test System: AMES SALMONELLA TYPHIMURIUM, Strain/Indicator: TA1535, Metabolic Activation: HAMSTER, LIVER, S-9, AROCLOR 1254 (10%), Method: PREINCUBATION) is “inactive; negative”; the mutagenic call (Test System: AMES SALMONELLA TYPHIMURIUM, Strain/Indicator: TA1535, Metabolic Activation: NONE, Method: PREINCUBATION) was “inactive; negative”; the mutagenic call (Test System: AMES SALMONELLA TYPHIMURIUM, Strain/Indicator: TA1535, Metabolic Activation: RAT, LIVER, S-9, AROCLOR 1254 (10%), Method: PREINCUBATION) was “inactive; negative”; the mutagenic call (Test System: AMES SALMONELLA TYPHIMURIUM, Strain/Indicator: TA1537, Metabolic Activation: HAMSTER, LIVER, S-9, AROCLOR 1254 (10%), Method: PREINCUBATION) was “inactive; negative”; the mutagenic call (Test System: AMES SALMONELLA TYPHIMURIUM, Strain/Indicator: TA1537, Metabolic Activation: NONE, Method: PREINCUBATION) is “inactive; negative”; the mutagenic call (Test System: AMES SALMONELLA TYPHIMURIUM, Strain/Indicator: TA1537, Metabolic Activation: RAT, LIVER, S-9, AROCLOR 1254 (10%), Method: PREINCUBATION) was “inactive; negative”.
Regarding `CCOc1ccc(NC(C)=O)cc1N`, the mutagenic call was “active; positive” (Test System: AMES SALMONELLA TYPHIMURIUM, Strain/Indicator: TA98, Metabolic Activation: HAMSTER, LIVER, S-9, AROCLOR 1254, Method: STANDARD PLATE); “active; positive” (Test System: AMES SALMONELLA TYPHIMURIUM, Strain/Indicator: TA98, Metabolic Activation: HAMSTER, LIVER, S-9, Method: STANDARD PLATE); “active; positive” (Test System: AMES SALMONELLA TYPHIMURIUM, Strain/Indicator: TA98, Metabolic Activation: MOUSE, LIVER, S-9, AROCLOR 1254, Method: STANDARD PLATE); “active; positive” (Test System: AMES SALMONELLA TYPHIMURIUM, Strain/Indicator: TA98, Metabolic Activation: MOUSE, LIVER, S-9, Method: STANDARD PLATE); “active; positive” (Test System: AMES SALMONELLA TYPHIMURIUM, Strain/Indicator: TA98, Metabolic Activation: RAT, LIVER, S-9, AROCLOR 1254, Method: STANDARD PLATE); “active; positive” (Test System: AMES SALMONELLA TYPHIMURIUM, Strain/Indicator: TA98, Metabolic Activation: RAT, LIVER, S-9, Method: STANDARD PLATE). Besides, the mutagenic call (Test System: AMES SALMONELLA TYPHIMURIUM, Strain/Indicator: TA100, Metabolic Activation: HAMSTER, LIVER, S-9, AROCLOR 1254, Method: STANDARD PLATE) is “active; positive”; the mutagenic call (Test System: AMES SALMONELLA TYPHIMURIUM, Strain/Indicator: TA100, Metabolic Activation: MOUSE, LIVER, S-9, AROCLOR 1254, Method: STANDARD PLATE) was “inactive; negative”; the mutagenic call (Test System: AMES SALMONELLA TYPHIMURIUM, Strain/Indicator: TA100, Metabolic Activation: MOUSE, LIVER, S-9, Method: STANDARD PLATE) was “inactive; negative”; the mutagenic call (Test System: AMES SALMONELLA TYPHIMURIUM, Strain/Indicator: TA100, Metabolic Activation: NONE, Method: STANDARD PLATE) is “inactive; negative”; the mutagenic call (Test System: AMES SALMONELLA TYPHIMURIUM, Strain/Indicator: TA100, Metabolic Activation: RAT, LIVER, S-9, Method: STANDARD PLATE) was “inactive; negative”; the mutagenic call (Test System: AMES SALMONELLA TYPHIMURIUM, Strain/Indicator: TA1535, Metabolic Activation: HAMSTER, LIVER, S-9, AROCLOR 1254, Method: STANDARD PLATE) is “inactive; negative”. The mutagenic call is “inactive; negative” (Test System: AMES SALMONELLA TYPHIMURIUM, Strain/Indicator: TA1535, Metabolic Activation: HAMSTER, LIVER, S-9, Method: STANDARD PLATE); “inactive; negative” (Test System: AMES SALMONELLA TYPHIMURIUM, Strain/Indicator: TA1535, Metabolic Activation: MOUSE, LIVER, S-9, AROCLOR 1254, Method: STANDARD PLATE); “inactive; negative” (Test System: AMES SALMONELLA TYPHIMURIUM, Strain/Indicator: TA1535, Metabolic Activation: MOUSE, LIVER, S-9, Method: STANDARD PLATE); “inactive; negative” (Test System: AMES SALMONELLA TYPHIMURIUM, Strain/Indicator: TA1535, Metabolic Activation: NONE, Method: STANDARD PLATE); “inactive; negative” (Test System: AMES SALMONELLA TYPHIMURIUM, Strain/Indicator: TA1535, Metabolic Activation: RAT, LIVER, S-9, AROCLOR 1254, Method: STANDARD PLATE); “inactive; negative” (Test System: AMES SALMONELLA TYPHIMURIUM, Strain/Indicator: TA1535, Metabolic Activation: RAT, LIVER, S-9, Method: STANDARD PLATE). The mutagenic call (Test System: AMES SALMONELLA TYPHIMURIUM, Strain/Indicator: TA1537, Metabolic Activation: HAMSTER, LIVER, S-9, AROCLOR 1254, Method: STANDARD PLATE) was “active; positive”; the mutagenic call (Test System: AMES SALMONELLA TYPHIMURIUM, Strain/Indicator: TA1537, Metabolic Activation: HAMSTER, LIVER, S-9, Method: STANDARD PLATE) was “active; positive”; the mutagenic call (Test System: AMES SALMONELLA TYPHIMURIUM, Strain/Indicator: TA1537, Metabolic Activation: MOUSE, LIVER, S-9, AROCLOR 1254, Method: STANDARD PLATE) is “active; positive”; the mutagenic call (Test System: AMES SALMONELLA TYPHIMURIUM, Strain/Indicator: TA1537, Metabolic Activation: RAT, LIVER, S-9, AROCLOR 1254, Method: STANDARD PLATE) was “active; positive”; the mutagenic call (Test System: AMES SALMONELLA TYPHIMURIUM, Strain/Indicator: TA1538, Metabolic Activation: HAMSTER, LIVER, S-9, AROCLOR 1254, Method: STANDARD PLATE) was “active; positive”; the mutagenic call (Test System: AMES SALMONELLA TYPHIMURIUM, Strain/Indicator: TA1538, Metabolic Activation: HAMSTER, LIVER, S-9, Method: STANDARD PLATE) is “active; positive”. Moreover, the mutagenic call reads like this: (Test System: AMES SALMONELLA TYPHIMURIUM, Strain/Indicator: TA1538, Metabolic Activation: MOUSE, LIVER, S-9, AROCLOR 1254, Method: STANDARD PLATE) “active; positive”; (Test System: AMES SALMONELLA TYPHIMURIUM, Strain/Indicator: TA1538, Metabolic Activation: NONE, Method: STANDARD PLATE) “inactive; negative”; (Test System: AMES SALMONELLA TYPHIMURIUM, Strain/Indicator: TA1538, Metabolic Activation: RAT, LIVER, S-9, AROCLOR 1254, Method: STANDARD PLATE) “active; positive”; (Test System: AMES SALMONELLA TYPHIMURIUM, Strain/Indicator: TA1538, Metabolic Activation: RAT, LIVER, S-9, Method: STANDARD PLATE) “active; positive”; (Test System: E. COLI, Strain/Indicator: WP2 UVRA, Metabolic Activation: HAMSTER, LIVER, S-9, AROCLOR 1254, Method: STANDARD PLATE) “inactive; negative”; (Test System: E. COLI, Strain/Indicator: WP2 UVRA, Metabolic Activation: HAMSTER, LIVER, S-9, Method: STANDARD PLATE) “inactive; negative”. Further, the mutagenic call was “inactive; negative” (Test System: E. COLI, Strain/Indicator: WP2 UVRA, Metabolic Activation: MOUSE, LIVER, S-9, AROCLOR 1254, Method: STANDARD PLATE); “inactive; negative” (Test System: E. COLI, Strain/Indicator: WP2 UVRA, Metabolic Activation: MOUSE, LIVER, S-9, Method: STANDARD PLATE); “inactive; negative” (Test System: E. COLI, Strain/Indicator: WP2 UVRA, Metabolic Activation: NONE, Method: STANDARD PLATE); “inactive; negative” (Test System: E. COLI, Strain/Indicator: WP2 UVRA, Metabolic Activation: RAT, LIVER, S-9, Method: STANDARD PLATE).
